Assay results: PubChem BioAssay AID1259407 (Chemical Carcinogenesis Research Information System (CCRIS), 2018)
Calls of active or inactive are those of the source. How the calls were made is not given here.

Test system: CCRIS mutagenicity, Ames/micronucleus/aberration tests
Experiment: CCRIS mutagenicity studies
[1] = Test System: AMES SALMONELLA TYPHIMURIUM, Strain/Indicator: TA100, Metabolic Activation: NONE, Method: STANDARD PLATE
[2] = Test System: AMES SALMONELLA TYPHIMURIUM, Strain/Indicator: TA98, Metabolic Activation: NONE, Method: STANDARD PLATE
[3] = Test System: AMES SALMONELLA TYPHIMURIUM, Strain/Indicator: TA100, Metabolic Activation: RAT, LIVER, S-9, AROCLOR 1254, Method: STANDARD PLATE
[4] = Test System: AMES SALMONELLA TYPHIMURIUM, Strain/Indicator: TA1537, Metabolic Activation: RAT, LIVER, S-9, AROCLOR 1254, Method: STANDARD PLATE

## [NH-]CCC(=O)[N-][C@@H](Cc1cnc[nH]1)C(=O)[O-].[Zn+2]
Test System: AMES SALMONELLA TYPHIMURIUM, Strain/Indicator: SD100, Metabolic Activation: NONE, Method: PREINCUBATION
  mutagenic call: inactive; negative
Test System: AMES SALMONELLA TYPHIMURIUM, Strain/Indicator: SD100, Metabolic Activation: RAT, LIVER, S-9, AROCLOR 1254, Method: PREINCUBATION
  mutagenic call: inactive; negative
Test System: AMES SALMONELLA TYPHIMURIUM, Strain/Indicator: TM677, Metabolic Activation: NONE, Method: PREINCUBATION
  mutagenic call: inactive; negative
Test System: AMES SALMONELLA TYPHIMURIUM, Strain/Indicator: TM677, Metabolic Activation: RAT, LIVER, S-9, AROCLOR 1254, Method: PREINCUBATION
  mutagenic call: inactive; negative
Test System: E. COLI, Strain/Indicator: WP2 UVRA, Metabolic Activation: NONE, Method: PREINCUBATION
  mutagenic call: inactive; negative
Test System: E. COLI, Strain/Indicator: WP2 UVRA, Metabolic Activation: RAT, LIVER, S-9, AROCLOR 1254, Method: PREINCUBATION
  mutagenic call: inactive; negative

## O=C(NCc1ccccc1)C(Br)c1ccccc1 (stereo unspecified)
Test System: AMES SALMONELLA TYPHIMURIUM, Strain/Indicator: TA100, Metabolic Activation: MOUSE, LIVER, S-9, AROCLOR 1254, Method: STANDARD PLATE
  mutagenic call: inactive; negative
[1]
  mutagenic call: inactive; negative

## CCCCC(CC)COC(=O)c1ccc(C(=O)OCC(CC)CCCC)c(C(=O)OCC(CC)CCCC)c1 (stereo unspecified)
Test System: AMES SALMONELLA TYPHIMURIUM, Strain/Indicator: TA97, Metabolic Activation: HAMSTER, LIVER, S-9, AROCLOR 1254 (10 OR 30%), Method: PREINCUBATION
  mutagenic call: inactive; negative
Test System: AMES SALMONELLA TYPHIMURIUM, Strain/Indicator: TA97, Metabolic Activation: NONE, Method: PREINCUBATION
  mutagenic call: inactive; negative
Test System: AMES SALMONELLA TYPHIMURIUM, Strain/Indicator: TA97, Metabolic Activation: RAT, LIVER, S-9, AROCLOR 1254 (10 OR 30%), Method: PREINCUBATION
  mutagenic call: inactive; negative
Test System: AMES SALMONELLA TYPHIMURIUM, Strain/Indicator: TA98, Metabolic Activation: HAMSTER, LIVER, S-9, AROCLOR 1254 (10 OR 30%), Method: PREINCUBATION
  mutagenic call: inactive; negative
Test System: AMES SALMONELLA TYPHIMURIUM, Strain/Indicator: TA98, Metabolic Activation: NONE, Method: PREINCUBATION
  mutagenic call: inactive; negative
Test System: AMES SALMONELLA TYPHIMURIUM, Strain/Indicator: TA98, Metabolic Activation: RAT, LIVER, S-9, AROCLOR 1254 (10 OR 30%), Method: PREINCUBATION
  mutagenic call: inactive; negative
Test System: AMES SALMONELLA TYPHIMURIUM, Strain/Indicator: TA100, Metabolic Activation: HAMSTER, LIVER, S-9, AROCLOR 1254 (10 OR 30%), Method: PREINCUBATION
  mutagenic call: inactive; negative
Test System: AMES SALMONELLA TYPHIMURIUM, Strain/Indicator: TA100, Metabolic Activation: NONE, Method: PREINCUBATION
  mutagenic call: inactive; negative
Test System: AMES SALMONELLA TYPHIMURIUM, Strain/Indicator: TA100, Metabolic Activation: RAT, LIVER, S-9, AROCLOR 1254 (10 OR 30%), Method: PREINCUBATION
  mutagenic call: inactive; negative
Test System: AMES SALMONELLA TYPHIMURIUM, Strain/Indicator: TA1535, Metabolic Activation: HAMSTER, LIVER, S-9, AROCLOR 1254 (10 OR 30%), Method: PREINCUBATION
  mutagenic call: inactive; negative
Test System: AMES SALMONELLA TYPHIMURIUM, Strain/Indicator: TA1535, Metabolic Activation: NONE, Method: PREINCUBATION
  mutagenic call: inactive; negative
Test System: AMES SALMONELLA TYPHIMURIUM, Strain/Indicator: TA1535, Metabolic Activation: RAT, LIVER, S-9, AROCLOR 1254 (10 OR 30%), Method: PREINCUBATION
  mutagenic call: inactive; negative

## Nc1ccc2ccc3cccc4ccc1c2c34
End Point: IN VITRO CHROMOSOMAL ABERRATIONS, Test System: CHINESE HAMSTER LUNG (CHL) CELLS, Metabolic Activation: NONE
  mutagenic call: inactive; negative
Test System: AMES SALMONELLA TYPHIMURIUM, Strain/Indicator: TA98(1,8-DNP6), Metabolic Activation: NONE, Method: STANDARD PLATE
  mutagenic call: active; positive
Test System: AMES SALMONELLA TYPHIMURIUM, Strain/Indicator: TA98(1,8-DNP6), Metabolic Activation: RAT, LIVER, S-9, AROCLOR 1254, Method: STANDARD PLATE
  mutagenic call: active; positive
Test System: AMES SALMONELLA TYPHIMURIUM, Strain/Indicator: TA98(NR), Metabolic Activation: NONE, Method: STANDARD PLATE
  mutagenic call: active; positive
Test System: AMES SALMONELLA TYPHIMURIUM, Strain/Indicator: TA98(NR), Metabolic Activation: RAT, LIVER, S-9, AROCLOR 1254, Method: STANDARD PLATE
  mutagenic call: active; positive
[2]
  mutagenic call: active; positive
Test System: AMES SALMONELLA TYPHIMURIUM, Strain/Indicator: TA98, Metabolic Activation: RAT, LIVER, S-9, AROCLOR 1254 (2 OR 4%), Method: STANDARD PLATE
  mutagenic call: active; positive
[1]
  mutagenic call: inactive; negative
Test System: AMES SALMONELLA TYPHIMURIUM, Strain/Indicator: TA100, Metabolic Activation: RAT, LIVER, S-9, AROCLOR 1254 (4%), Method: STANDARD PLATE
  mutagenic call: inactive; negative
[3]
  mutagenic call: active; positive
Test System: AMES SALMONELLA TYPHIMURIUM, Strain/Indicator: TA1535, Metabolic Activation: RAT, LIVER, S-9, AROCLOR 1254 (4%), Method: STANDARD PLATE
  mutagenic call: inactive; negative
Test System: AMES SALMONELLA TYPHIMURIUM, Strain/Indicator: TA1537, Metabolic Activation: RAT, LIVER, S-9, AROCLOR 1254 (4%), Method: STANDARD PLATE
  mutagenic call: inactive; negative
[4]
  mutagenic call: active; positive
Test System: AMES SALMONELLA TYPHIMURIUM, Strain/Indicator: TA1538, Metabolic Activation: NONE, Method: STANDARD PLATE
  mutagenic call: inactive; negative
Test System: AMES SALMONELLA TYPHIMURIUM, Strain/Indicator: TA1538, Metabolic Activation: RAT, LIVER, S-9, AROCLOR 1254, Method: STANDARD PLATE
  mutagenic call: active; positive

## CSc1nc2cc(Oc3cccc(Cl)c3Cl)c(Cl)cc2[nH]1
End Point: IN VITRO CHROMOSOMAL ABERRATIONS, Test System: RIVER BUFFALO LYMPHOCYTES, Metabolic Activation: NONE
  mutagenic call: active; positive (structural and ploidy changes)
End Point: IN VITRO MICRONUCLEUS, Test System: RIVER BUFFALO LYMPHOCYTES, Metabolic Activation: NONE
  mutagenic call: active; positive

## N=NCCCO
Test System: AMES SALMONELLA TYPHIMURIUM, Strain/Indicator: TA1535, Metabolic Activation: NONE, Method: STANDARD PLATE
  mutagenic call: active; positive
Test System: E. COLI, Strain/Indicator: WP2, Metabolic Activation: NONE, Method: STANDARD PLATE
  mutagenic call: active; positive
Test System: E. COLI, Strain/Indicator: WP2 UVRA, Metabolic Activation: NONE, Method: STANDARD PLATE
  mutagenic call: active; positive

## CN(C)CCCNc1c2ccccc2nc2c(N(C)C)ccc([N+](=O)[O-])c12
[2]
  mutagenic call: active; positive
[1]
  mutagenic call: active; positive

## [S]1[S][SbH][S][S][SbH]1
Test System: CHINESE HAMSTER OVARY, Strain/Indicator: CHO (HGPRT)/6-THIOGUANINE, Metabolic Activation: NONE
  mutagenic call: inactive; negative
Test System: CHINESE HAMSTER OVARY, Strain/Indicator: CHO (HGPRT)/6-THIOGUANINE, Metabolic Activation: RAT, LIVER, S-9, AROCLOR 1254
  mutagenic call: inactive; negative

## COC1C2C(=O)C34C(=O)c5c(O)cc(C)cc5C(=O)C35C3C(=O)C46C(=O)c4c(O)cc(C)cc4C(=O)C26C(C3OC)C15 (stereo unspecified)
Test System: AMES SALMONELLA TYPHIMURIUM, Strain/Indicator: TA98, Metabolic Activation: RAT, LIVER, S-9, AROCLOR 1254, Method: STANDARD PLATE
  mutagenic call: inactive; negative
[3]
  mutagenic call: inactive; negative
[4]
  mutagenic call: inactive; negative

## Nc1c2ccccc2nc2ccc(Cl)cc12
Test System: AMES SALMONELLA TYPHIMURIUM, Strain/Indicator: TA1537, Metabolic Activation: NONE, Method: PREINCUBATION
  mutagenic call: active; positive

## CC(C)=CCCC(C)CC=O (stereo unspecified)
Test System: AMES SALMONELLA TYPHIMURIUM, Strain/Indicator: TA97A, Metabolic Activation: NONE, Method: STANDARD PLATE
  mutagenic call: inactive; negative
Test System: AMES SALMONELLA TYPHIMURIUM, Strain/Indicator: TA97A, Metabolic Activation: RAT LIVER S-9, AROCLOR 1254, Method: STANDARD PLATE
  mutagenic call: inactive; negative
[2]
  mutagenic call: inactive; negative
Test System: AMES SALMONELLA TYPHIMURIUM, Strain/Indicator: TA98, Metabolic Activation: RAT LIVER S-9, AROCLOR 1254, Method: STANDARD PLATE
  mutagenic call: inactive; negative
[1]
  mutagenic call: inactive; negative
Test System: AMES SALMONELLA TYPHIMURIUM, Strain/Indicator: TA100, Metabolic Activation: RAT LIVER S-9, AROCLOR 1254, Method: STANDARD PLATE
  mutagenic call: inactive; negative
Test System: AMES SALMONELLA TYPHIMURIUM, Strain/Indicator: TA102, Metabolic Activation: NONE, Method: STANDARD PLATE
  mutagenic call: inactive; negative
Test System: AMES SALMONELLA TYPHIMURIUM, Strain/Indicator: TA102, Metabolic Activation: RAT LIVER S-9, AROCLOR 1254, Method: STANDARD PLATE
  mutagenic call: inactive; negative
